The target of this assay is T1, human Kv7.2+3 (Homo sapiens, UniProt O43525+O43526).
T1 construct: expressed in transfected cells; host or cells: HEK293
Put plainly: FLIPR-based characterization of Kv7.2+3 modulators (thallium influx, BTC-AM). Format: cell-based. Conditions: HEK293 cells over-expressing human Kv7.2+3; for EC50: Tl+ influx FLIPR, 50% of channel activity compared to retigabine control responses; for Emax: maximal response relative to the reference (retigabine) response, read-out: Efficacy. The protocol: This experiment determines the ability of a test compound to modulate the activity of Kv7.2+3 channels heterologously expressed in human HEK293 cells. The ability is determined relative to retigabine. The activity is determined using a standard thallium (I) sensitive assay, e.g. using a fluorometric method in a Fluorescent Image Plate Reader (FLIPR) as described below in more detail.
Full concentration/response curves are generated and EC50 values are calculated based on max values. EC50 values (Effective Concentration) represent the concentration of the test substance, at which 50% of the channel activity is obtained when compared to retigabine control responses. Maximal response determined relative to the reference (retigabine) response is calculated.
Human HEK293 cells over-expressing human Kv7.2+3 are grown in culture medium (DMEM supplemented with 10% foetal bovine serum), in polystyrene culture flasks ([…]) in a humidified atmosphere of 5% CO2 in air, at 37° C. Cell confluence should be 80-90% on day of plating. Cells are rinsed with 4 ml of PBS (phosphate buffered saline) and incubated 2 min with 1 ml of Trypsin-EDTA. After addition of 25 ml of culture medium cells are re-suspended by trituration with a 25 ml pipette.
The cells are seeded at a density of ˜3×10^6 cells/ml (25 μl/well) in black-walled, clear bottom, 384-well plates pre-treated with 0.01 g/l poly-D-lysin (20 μl/well for 30 min). Plated cells were allowed to proliferate for 24 h before loading with dye.
BTC-AM (50 mg, Invitrogen) is added 25.5 μl DMSO. The BTC-AM stock solution (2 mM) is diluted to a final concentration of 2 μM in Cl^− free assay buffer (in mM: 140 Na^+-gluconate, 2.5 K^+-gluconate, 6 Ca2^+-gluconate, 1 Mg^2+ gluconate, 5 glucose, 10 HEPES, pH 7.3) containing 2 μM ouabain, 2 mM amaranth and 1 mM tartrazine.
The culture medium is aspirated from the wells, the cells are washed thrice in Cl^− free assay buffer, and 25 μl of the BTC-AM loading solution is added to each well. The cells are incubated at 37° C. for 60 min.
After the loading period, the TI^+-sensitive BTC fluorescence signal is measured over time using a FLIPR.
• Temperature: Room temp. • First addition: 12 μl test or control compound after 15 sec at a rate of 30 μl/sec and starting height of 20 μl • Second addition: 12 μl stimulus buffer (Cl^− free assay buffer supplemented with 1 mM TI2SO4, 5 mM K2SO4 as well as the quenchers amaranth (2 mM) and tartrazine (1 mM)) is added after an additional 3 minutes at a rate of 30 μl/sec and starting height of 30 μl • Reading intervals: First sequence—3 sec×5, 2 sec×24 and 5 sec×25 Second sequence—1 sec×5, 2 sec×24 and 5 sec×36 Addition plates (compound plate and stimulus plate) are placed in positions 2 and 3, respectively. Cell plates are placed in position 1 and run using the “KCNQ (two additions)” program. FLIPR will then take the appropriate measurements in accordance with the interval settings above. Fluorescence obtained after stimulation is corrected for the mean basal fluorescence (in Cl^− free assay buffer).
Full concentration/response curves are generated and EC50 values (“Effective Concentration”; the concentration at which 50% of the channel activity is obtained when compared to retigabine control responses) are calculated based on peak values. Maxi-mal response determined relative to the reference (retigabine) response is calculated.

Each structure is given as a SMILES string.

Broadly, the EC50 is the concentration at which the effect is half-maximal. Higher therefore signals a need for much substance.

For `O=C(Cc1cc(F)cc(F)c1)Nc1ccc(NCc2ccc(F)cc2)nc1N1CCOCC1` [Compound 2.1, 2-(3,5-Difluoro-phenyl)-N-[6-(4-fluoro-benzylamino)-2-morpholin-4-yl-pyridin-3-yl]-acetamide], the 50% effective concentration (EC50) is 130 nM and the Emax turned out to be 100%.

As to `CC(C)(Nc1ccc(NC(=O)Cc2cc(F)cc(F)c2)c(N2CCOCC2)n1)c1ccc(F)cc1` [Compound 2.2, 2-(3,5-Difluoro-phenyl)-N-{6-[1-(4-fluoro-phenyl)-1-methyl-ethylamino]-2-morpholin-4-yl-pyridin-3-yl}-acetamide], the EC50 came to 5400 nM and the Emax was 86%.

For `Cc1ccccc1C(=O)Nc1ccc(NCc2ccc(F)cc2)nc1N1CCOCC1` [Compound 2.3, N-[6-(4-Fluoro-benzylamino)-2-morpholin-4-yl-pyridin-3-yl]-2-methyl-benzamide], the EC50 worked out at 10000 nM and the Emax was 52%.

Regarding `O=C(Cc1ccc2c(c1)OCO2)Nc1ccc(NCc2ccc(F)cc2)nc1N1CCOCC1` [Compound 2.4, 2-Benzo[1,3]dioxol-5-yl-N-[6-(4-fluoro-benzylamino)-2-morpholin-4-yl-pyridin-3-yl]-acetamide], the EC50 was found to be 780 nM and the Emax turned out to be 104%.

`COc1ccc(CC(=O)Nc2ccc(NCc3ccc(F)cc3)nc2N2CCOCC2)cc1` [Compound 2.5, N-[6-(4-Fluoro-benzylamino)-2-morpholin-4-yl-pyridin-3-yl]-2-(4-methoxy-phenyl)-acetamide]: the EC50 worked out at 840 nM and the Emax was 98%.

Consider `COc1cccc(CC(=O)Nc2ccc(NCc3ccc(F)cc3)nc2N2CCOCC2)c1` [Compound 2.6, N-[6-(4-Fluoro-benzylamino)-2-morpholin-4-yl-pyridin-3-yl]-2-(3-methoxy-phenyl)-acetamide], for which the EC50 came out at 330 nM and the Emax turned out to be 88%.

As to `O=C(Cc1ccc(Cl)cc1Cl)Nc1ccc(NCc2ccc(F)cc2)nc1N1CCOCC1` [Compound 2.7], a half-maximal response (EC50) required 4100 nM and the Emax turned out to be 47%.

With `O=C(Cc1cccc(C(F)(F)F)c1)Nc1ccc(NCc2ccc(F)cc2)nc1N1CCOCC1` [Compound 2.8, N-[6-(4-Fluoro-benzylamino)-2-morpholin-4-yl-pyridin-3-yl]-2-(3-trifluoromethyl-phenyl)-acetamide], the EC50 was found to be 590 nM and the Emax turned out to be 87%.

Consider `O=C(Cc1ccccc1F)Nc1ccc(NCc2ccc(F)cc2)nc1N1CCOCC1` [Compound 2.9, N-[6-(4-Fluoro-benzylamino)-2-morpholin-4-yl-pyridin-3-yl]-2-(2-fluoro-phenyl)-acetamide], for which the EC50 was determined as 210 nM and the Emax is 86%.

With `O=C(Cc1cccc(F)c1)Nc1ccc(NCc2ccc(F)cc2)nc1N1CCOCC1` [Compound 2.10, N-[6-(4-Fluoro-benzylamino)-2-morpholin-4-yl-pyridin-3-yl]-2-(3-fluoro-phenyl)-acetamide], a half-maximal effect (EC50) was put at 35 nM and the Emax came to 93%.

As to `O=C(Cc1ccc(Cl)cc1)Nc1ccc(NCc2ccc(F)cc2)nc1N1CCOCC1` [Compound 2.11], the EC50 worked out at 230 nM and the Emax stood at 88%.

In the case of `O=C(CSc1ccc(F)cc1)Nc1ccc(NCc2ccc(F)cc2)nc1N1CCOCC1` [Compound 2.12], the response was half-maximal at 2700 nM (EC50) and the Emax turned out to be 87%.

On to `O=C(COc1cccc(F)c1)Nc1ccc(NCc2ccc(F)cc2)nc1N1CCOCC1` [Compound 2.13, 2-(3-fluorophenoxy)-N-[6-[(4-fluorophenyl)-methylamino]-2-morpholino-3-pyridyl]acetamide], for which a half-maximal effect (EC50) was put at 6600 nM and the Emax was 86%.

As for `O=C(Cc1ccc(Cl)nc1)Nc1ccc(NCc2ccc(F)cc2)nc1N1CCOCC1` [Compound 2.14, 2-(6-chloro-3-pyridyl)-N-[6-[(4-fluorophenyl)-methylamino]-2-morpholino-3-pyridyl]acetamide], the EC50 was 900 nM and the Emax was 80%.

As to `O=C(Nc1ccc(NCc2ccc(F)cc2)nc1N1CCOCC1)c1cccnc1F` [Compound 2.15, 2-fluoro-N-[6-[(4-fluorophenyl)-methylamino]-2-morpholino-3-pyridyl]-pyridine-3-carboxamide], the 50% effective concentration (EC50) turned out to be 11000 nM and the Emax came out at 28%.

These data come from patent US20110312962A1, “NOVEL 2-MORPHOLINO-3-AMIDO-PYRIDINE DERIVATIVES AND THEIR MEDICAL USE” (NEUROSEARCH A/S, priority 2008, published 2011).
